Assay results taken from patent US20260015350A1, “AZAQUINAZOLINE PAN-KRAS INHIBITORS” (Mirati Therapeutics, Inc., priority 2022, published 2026).

Key:
KRas^G12R = biological target: T1, KRas^G12R (Homo sapiens, UniProt P01116, G12R); test: KRas binding assay (TR-FRET tracer displacement), KRas G12R
T1 construct: Biotinylated KRas (corresponding to amino acids 1-169, produced at Accelegan Inc.); biotin (biotinylated); purchased Accelegan Inc

[1] = system: KRas-mediated phosphorylation of ERK in H460 cells; test: Inhibition of KRas-mediated phosphorylation of ERK (Cisbio HTRF pERK), H460 cells; assay type: cell-based; settings: Homo sapiens; for IC50: NCI-H460, HTRF pERK; for inhibition at 0.1 µM: NCI-H460, 3 h, single point, 100 nM compound, 3 hrs
Procedure, shortened: (§1)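 Using 6,000 cells per well, compounds are applied for 3 hrs and cells then lysed at 4° C with shaking for 40 mins. Phospho-ERK is measured by HTRF after 2 hrs of lysate incubation with the d2/Cryptate antibody mixture.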

[2] = system: KRas-mediated phosphorylation of ERK in PSN1 cells; test: Inhibition of KRas-mediated phosphorylation of ERK (Cisbio HTRF pERK), PSN1 cells; assay type: cell-based; settings: Homo sapiens
Procedure, shortened: (§2)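 Overnight culture at 37° C./5% CO2 in RPMI containing 10% FBS, seeded 6,000 cells per well, preceded the assay. A covered 4-hour incubation at room temperature followed, then HTRF signal for phosphorylated ERK was measured.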

[3] = system: KRas-mediated phosphorylation of ERK in MKN1 cells; test: Inhibition of KRas-mediated phosphorylation of ERK (Cisbio HTRF pERK), MKN1 cells; assay type: cell-based; settings: Homo sapiens, MKN-1
Procedure, shortened: as §2

[4] = system: KRas-mediated phosphorylation of ERK in A549 cells; test: Inhibition of KRas-mediated phosphorylation of ERK (Cisbio HTRF pERK), A549 cells; assay type: cell-based; settings: Homo sapiens; for inhibition at 0.1 µM: A549, 3 h, single point, 100 nM compound, 3 hrs; for IC50: HTRF pERK
Procedure, shortened: (§3)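 Compound treatment lasts 3 hrs on 6,000 seeded cells, testing 10 doses from a 10 uM top concentration in 3-fold decrements at 0.8% final DMSO. Trametinib at 0.2 uM defines the Min signal. Detection is HTRF on cold-lysed cell extracts.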

KRas^G12D = biological target: T2, KRas^G12D (Homo sapiens, UniProt P01116, G12D); test: KRas binding assay (TR-FRET tracer displacement), KRas G12D
T2 construct: Biotinylated KRas (corresponding to amino acids 1-169, produced at Accelegan Inc.); biotin (biotinylated); purchased Accelegan Inc

[5] = system: KRas-mediated phosphorylation of ERK in HCT116 cells; test: Inhibition of KRas-mediated phosphorylation of ERK (Cisbio HTRF pERK), HCT116 cells; assay type: cell-based; settings: Homo sapiens; for IC50: HCT-116, HTRF pERK; for inhibition at 0.1 µM: HCT-116, 3 h, single point, 100 nM compound, 3 hrs
Procedure, shortened: as §3

KRas^G12V = biological target: T3, KRas^G12V (Homo sapiens, UniProt P01116, G12V); test: KRas binding assay (TR-FRET tracer displacement), KRas G12V
T3 construct: Biotinylated KRas (corresponding to amino acids 1-169, produced at Accelegan Inc.); biotin (biotinylated); purchased Accelegan Inc

[6] = system: KRas-mediated phosphorylation of ERK in H358 cells; test: Inhibition of KRas-mediated phosphorylation of ERK (Cisbio HTRF pERK), H358 cells; assay type: cell-based; settings: Homo sapiens; for inhibition at 0.1 µM: NCI-H358, 3 h, single point, 100 nM compound, 3 hrs; for IC50: NCI-H358, HTRF pERK
Procedure, shortened: as §1

[7] = system: KRas-mediated phosphorylation of ERK in AsPC-1 cells; test: Inhibition of KRas-mediated phosphorylation of ERK (Cisbio HTRF pERK), AsPC-1 cells; assay type: cell-based; settings: Homo sapiens; for IC50: ASPC1, AsPC-1 cells, HTRF pERK; for inhibition at 0.1 µM: ASPC1, 3 h, single point, 100 nM compound, 3 hrs, AsPC-1 cells
Procedure, shortened: as §1

[8] = system: KRas-mediated phosphorylation of ERK in H727 cells; test: Inhibition of KRas-mediated phosphorylation of ERK (Cisbio HTRF pERK), H727 cells; assay type: cell-based; settings: Homo sapiens; for IC50: NCI-H727, H727 cells, HTRF pERK; for inhibition at 0.1 µM: NCI-H727, 3 h, single point, 100 nM compound, 3 hrs, H727 cells
Procedure, shortened: as §1

T3 sequence (P01116 1-169 isoform P01116-2 G12V): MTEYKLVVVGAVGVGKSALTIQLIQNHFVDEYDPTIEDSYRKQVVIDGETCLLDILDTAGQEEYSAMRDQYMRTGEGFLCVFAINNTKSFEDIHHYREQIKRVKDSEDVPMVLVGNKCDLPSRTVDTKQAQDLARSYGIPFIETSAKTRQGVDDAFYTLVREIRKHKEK
T2 sequence (P01116 1-169 isoform P01116-2 G12D): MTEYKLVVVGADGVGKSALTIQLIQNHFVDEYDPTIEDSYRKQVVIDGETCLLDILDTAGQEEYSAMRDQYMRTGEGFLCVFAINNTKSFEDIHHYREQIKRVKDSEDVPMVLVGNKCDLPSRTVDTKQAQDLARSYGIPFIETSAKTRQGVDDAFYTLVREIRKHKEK
T1 sequence (P01116 1-169 isoform P01116-2 G12R): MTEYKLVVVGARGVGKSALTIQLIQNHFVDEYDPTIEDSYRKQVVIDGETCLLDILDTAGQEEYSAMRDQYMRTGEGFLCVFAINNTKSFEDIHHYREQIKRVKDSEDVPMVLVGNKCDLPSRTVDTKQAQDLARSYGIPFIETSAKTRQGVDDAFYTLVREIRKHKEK

| IC50 (KRas^G12R) [nM] | IC50 [1] [nM] | IC50 [2] [nM] | IC50 [3] [nM] | IC50 (KRas^G12D) [nM] | IC50 [5] [nM] | IC50 (KRas^G12V) [nM] | IC50 [7] [nM] | IC50 [8] [nM] | IC50 [4] [nM] | IC50 [6] [nM] | Compound | inhibition at 0.1 µM [4] [%] | inhibition at 0.1 µM [6] [%] | inhibition at 0.1 µM [1] [%] | inhibition at 0.1 µM [5] [%] | inhibition at 0.1 µM [7] [%] | inhibition at 0.1 µM [8] [%] |
| --- | --- | --- | --- | --- | --- | --- | --- | --- | --- | --- | --- | --- | --- | --- | --- | --- | --- |
| 4 |  | 2840 | 13 | 2 |  | < 2 | 73 | 211 |  |  | CCc1c(F)ccc2cc(O)cc(-c3ncc4c(N5CCC[C@@](C)(O)C5)nc(OC[C@@]56CCCN5[C@@H](CNS(=O)(=O)N(C)C)CC6)nc4c3F)c12 [Example 788, (R)-1-(7-(8-ethyl-7-fluoro-3-hydroxynaphthalen-1-yl)-8-fluoro-2-(((3R,7aS)-3-(((dimethylsulfamoyl)amino)methyl)tetrahydro-1H-pyrrolizin-7a(5H)-yl)methoxy)pyrido[4,3-d]pyrimidin-4-yl)-3-methylpiperidin-3-ol] | 38 | 75 | 47 | 33 | 45 | 41 |
| < 2 |  | 1750 | 6 | < 2 |  | < 2 | 32 | 116 |  |  | CCc1c(F)ccc2cc(O)cc(-c3ncc4c(N5CCC[C@@](C)(O)C5)nc(OC[C@@]56CCCN5[C@H](CNS(=O)(=O)N(C)C)CC6)nc4c3F)c12 [Example 789, (R)-1-(7-(8-ethyl-7-fluoro-3-hydroxynaphthalen-1-yl)-8-fluoro-2-(((3S,7aS)-3-(((dimethylsulfamoyl)amino)methyl)tetrahydro-1H-pyrrolizin-7a(5H)-yl)methoxy)pyrido[4,3-d]pyrimidin-4-yl)-3-methylpiperidin-3-ol] | 57 | 97 | 76 | 55 | 77 | 43 |
| 2 | 4 | 744 | 2 | 2 | 13 | < 2 | 4 | 32 | 9 | 8 | CCc1c(F)ccc2cc(O)cc(-c3ncc4c(N5CCC[C@@](C)(O)C5)nc(OCC56CCCN5CC(=C(F)F)C6)nc4c3F)c12 (stereo partly drawn) [Example 792, (3R)-1-(2-((2-(difluoromethylene)tetrahydro-1H-pyrrolizin-7a(5H)-yl)methoxy)-7-(8-ethyl-7-fluoro-3-hydroxynaphthalen-1-yl)-8-fluoropyrido[4,3-d]pyrimidin-4-yl)-3-methylpiperidin-3-ol] |  |  |  |  |  |  |
| 3 | 10 | 812 | 1 | < 2 | 24 | < 2 | 13 | 29 | 23 | 8 | C[C@@H]1C[C@@H]1c1c(Cl)cc(O)cc1-c1ncc2c(N3CCC[C@@](C)(O)C3)nc(OC[C@@]34CCCN3C[C@H](F)C4)nc2c1F [Example 805, (R)-1-(7-(3-chloro-5-hydroxy-2-((1S,2R)-2-methylcyclopropyl)phenyl)-8-fluoro-2-(((2R,7aS)-2-fluorotetrahydro-1H-pyrrolizin-7a(5H)-yl)methoxy)pyrido[4,3-d]pyrimidin-4-yl)-3-methylpiperidin-3-ol] |  |  |  |  |  |  |
| 6 | 166 | > 10000 | 68 | 12 | 324 | 4 | 743 | 363 | 922 | 177 | CCc1c(F)ccc2cc(O)cc(-c3ncc4c(N5CC6CCC(CO)(C6)C5)nc(OC[C@@]56CCCN5C[C@H](F)C6)nc4c3F)c12 (stereo partly drawn) [Example 812, 5-ethyl-6-fluoro-4-(8-fluoro-2-(((2R,7aS)-2-fluorotetrahydro-1H-pyrrolizin-7a(5H)-yl)methoxy)-4-(1-(hydroxymethyl)-3-azabicyclo[3.2.1]octan-3-yl)pyrido[4,3-d]pyrimidin-7-yl)naphthalen-2-ol] |  |  |  |  |  |  |

Second part, the molecule before the results:

| Compound | IC50 (KRas^G12R) [nM] | IC50 [1] [nM] | IC50 [2] [nM] | IC50 [3] [nM] | IC50 (KRas^G12D) [nM] | IC50 [5] [nM] | IC50 (KRas^G12V) [nM] | IC50 [7] [nM] | IC50 [8] [nM] | IC50 [4] [nM] | IC50 [6] [nM] | inhibition at 0.1 µM [4] [%] | inhibition at 0.1 µM [6] [%] | inhibition at 0.1 µM [1] [%] | inhibition at 0.1 µM [5] [%] | inhibition at 0.1 µM [7] [%] | inhibition at 0.1 µM [8] [%] |
| --- | --- | --- | --- | --- | --- | --- | --- | --- | --- | --- | --- | --- | --- | --- | --- | --- | --- |
| CCc1c(F)ccc2cc(O)cc(-c3ncc4c(N5CCCC6(CNC(=O)N6)C5)nc(OC[C@]56CCCN5[C@H](COC(=O)N(C)C)CC6)nc4c3F)c12 (stereo partly drawn) [Example 711, ((3S,7aR)-7a-(((7-(8-ethyl-7-fluoro-3-hydroxynaphthalen-1-yl)-8-fluoro-4-(2-oxo-1,3,7-triazaspiro[4.5]decan-7-yl)pyrido[4,3-d]pyrimidin-2-yl)oxy)methyl)hexahydro-1H-pyrrolizin-3-yl)methyl dimethylcarbamate] | < 2 | 109 | 6220 | 21 | < 2 | 247 | < 2 | 121 | 196 |  |  | 43 | 78 |  |  |  |  |
| CCc1c(F)ccc2cc(O)cc(-c3ncc4c(N5CCC[C@@](C)(O)C5)nc(OC[C@]56CCCN5[C@H](CNS(=O)(=O)N(C)C)CC6)nc4c3F)c12 [Example 720, N,N-dimethyl-(((3S,7aR)-7a-(((7-(8-ethyl-7-fluoro-3-hydroxynaphthalen-1-yl)-8-fluoro-4-((R)-3-hydroxy-3-methylpiperidin-1-yl)pyrido[4,3-d]pyrimidin-2-yl)oxy)methyl)hexahydro-1H-pyrrolizin-3-yl)methyl)aminosulfonamide] | < 2 |  | 1760 | 6 | < 2 |  | < 2 | 19 | 47 |  |  | 64 | 85 | 80 | 51 | 70 | 43 |
| C#Cc1c(F)ccc2cc(O)cc(-c3ncc4c(N5CCC[C@@](C)(O)C5)nc(OC[C@]56CCCN5[C@H](COC(=O)N(C)C)CC6)nc4c3F)c12 [Example 753, ((3S,7aR)-7a-(((7-(8-ethynyl-7-fluoro-3-hydroxynaphthalen-1-yl)-8-fluoro-4-((R)-3-hydroxy-3-methylpiperidin-1-yl)pyrido[4,3-d]pyrimidin-2-yl)oxy)methyl)hexahydro-1H-pyrrolizin-3-yl)methyl dimethylcarbamate] | 2 |  | 3080 | 14 | < 2 |  | < 2 | 69 | 83 |  |  | 2 | 76 | 42 | 23 |  |  |
| O=C1CC2(CCCN(c3nc(OC[C@@]45CCCN4C[C@H](F)C5)nc4c(F)c(-c5cc(O)cc6ccc(F)c(Cl)c56)ncc34)C2)C(=O)N1 (stereo partly drawn) [Example 774, 7-(7-(8-chloro-7-fluoro-3-hydroxynaphthalen-1-yl)-8-fluoro-2-(((2R,7aS)-2-fluorohexahydro-1H-pyrrolizin-7a-yl)methoxy)pyrido[4,3-d]pyrimidin-4-yl)-2,7-diazaspiro[4.5]decane-1,3-dione] | < 2 | 434 | 2340 | 123 | 2 | 506 | < 2 | 852 | 138 | 924 | 121 |  |  |  |  |  |  |
| CCc1c(F)ccc2cc(O)cc(-c3ncc4c(N5CCC[C@@](C)(O)C5)nc(OCC5(CN(C)C)CC56CC6)nc4c3F)c12 (stereo partly drawn) [Example 783, (3R)-1-(2-((1-((dimethylamino)methyl)spiro[2.2]pentan-1-yl)methoxy)-7-(8-ethyl-7-fluoro-3-hydroxynaphthalen-1-yl)-8-fluoropyrido[4,3-d]pyrimidin-4-yl)-3-methylpiperidin-3-ol] | 5 |  | 9780 | 19 | 2 |  | 2 | 52 | 187 |  |  | 34 | 62 | 47 | 31 | 47 | 12 |
